Assay results taken from patent US20250326708A1, “LONG-ACTING SPLEEN-TARGETING CATIONIC LIPID COMPOUND COMPRISING BENZENE RING STRUCTURE, COMPOSITION COMPRISING SAME, AND USE THEREOF” (Beijing Youcarekechuang Pharmaceutical Technology Co., Ltd., priority 2024, published 2025).
Values joined by “and” are separate entries in the source; they are usually repeats but may differ in a detail not shown here. Identical values can stand only once.

Legend:
female BALB/C mice [1] = test: Expression of delivered mRNA in different organs of mice (organ imaging); assay type: in vivo; conditions: for Average radiation intensity of mouse organs: Heart / Average radiation intensity of mouse organs: Kidney / Average radiation intensity of mouse organs: Liver / Average radiation intensity of mouse organs: Lung / Average radiation intensity of mouse organs: Lymph / Average radiation intensity of mouse organs: Spleen: 6 hours after 5 μg Fluc-mRNA subcutaneously
Procedure: LNP preparations containing 5 μg of Fluc-mRNA were subcutaneously injected into female BALB/C mice (4 to 6 weeks old, weighing 17 to 19 g). At specified time points after administration (6 h), the mice were intraperitoneally injected with fluorescent imaging substrates and allowed to move freely for 5 minutes. The average radiation intensity (corresponding to fluorescence intensity) of proteins expressed by the mRNA delivered by the LNP preparations in the mice in vivo was then detected using the IVIS Spectrum small-animal in vivo imaging system. After sampling, the mice were killed by cervical dislocation and dissected, and the internal organs: heart, liver, spleen, lung, kidney, and lymph of mice were accurately isolated. The average radiation intensity (corresponding to fluorescence intensity) of proteins expressed by the mRNA delivered by the LNP preparations in various organs of mice was then detected using the IVIS Spectrum small-animal in vivo imaging system.

female BALB/C mice [2] = test: Expression of delivered mRNA in mice in vivo (IVIS in vivo imaging); conditions: 10 μg Fluc-mRNA via tail vein
Procedure: LNP preparations containing 10 μg of Fluc-mRNA were injected via the tail vein into female BALB/C mice (4 to 6 weeks old, weighing 17 to 19 g). At specified time points after administration (6 h, 24 h, 48 h, and 7 d), the mice were intraperitoneally injected with fluorescent imaging substrates and allowed to move freely for 5 minutes. The average radiation intensity (corresponding to fluorescence intensity) of proteins expressed by the mRNA delivered by the LNP preparations in the mice in vivo was then detected using the IVIS Spectrum small-animal in vivo imaging system.

293T cells [3] = test: Fluorescence detection of Fluc-mRNA (transfection efficiency) of LNP preparations; assay type: cell-based
Procedure: (§1) Cell recovery and passage: 293T cells were recovered and cultured in culture dishes. The cells were passaged until the required number of cells was obtained.
(§2) Seeding plates: The cells in culture dishes were digested and counted, then seeded in a 96-well plate at 10,000 cells per well and seeded in a 12-well plate at 150,000 cells per well. The cells were cultured overnight until cell adhesion.
(§3) The cationic lipids listed in Table 2 were each mixed with DSPC (AVT (Shanghai) Pharmaceutical Technology Co., Ltd.), cholesterol (AVT (Shanghai) Pharmaceutical Technology Co., Ltd.), and DMG-PEG2000 in a molar ratio of 49:10:39.5:1.5 and dissolved in ethanol to prepare ethanol lipid solutions. Using the ethanol injection method, the ethanol lipid solutions were quickly added to a citrate buffer (pH between 4 and 5), and vortexed for 30 seconds for later use. eGFP-mRNA (purchased from Shanghai BioHub Biotechnology Co., Ltd.), Fluc-mRNA (purchased from Shanghai BioHub Biotechnology Co., Ltd.), or Cy5 fluorescently labeled Leqvio (purchased from Sangon Biotech (Shanghai) Co., Ltd.) was diluted in a citrate buffer (pH between 4 and 5) to obtain an mRNA aqueous solution. A certain volume of the lipid solution and the mRNA aqueous solution were mixed to prepare liposomes at a total lipid-to-mRNA weight ratio of 15:1. The mixtures were sonicated at 25° C. for 15 minutes (ultrasonic frequency: 40 kHz, ultrasonic power: 800 W). The resulting liposomes were diluted 10-fold with PBS, followed by ultrafiltration using a 300 kDa ultrafiltration tube to remove ethanol. After adjusting the volume with PBS, LNP preparations encapsulating eGFP-mRNA or Fluc-mRNA were obtained, using cationic lipids, DSPC, cholesterol, and DMG-PEG2000 at a molar ratio of 49:10:39.5:1.5.
(§4) Cell recovery and passage: The method was the same as described in Example 3.
(§5) Seeding plates: The method was the same as described in Example 3.
LNP preparations containing 0.3 μg of Fluc-mRNA (with the vector components of the LNP preparations of cationic lipids, DSPC, cholesterol, and DMG-PEG2000 in a molar ratio of 49:10:39.5:1.5, where the cationic lipids are those listed in Table 1) were added to the cell culture medium in a 96-well plate. After 24 hours of continued culture, the corresponding reagents were added according to the instructions in the Gaussia Luciferase Assay Kit. Fluorescence intensity in each well was detected using the IVIS fluorescence detection system. The transfection efficiency of LNP preparations prepared with a series of cationic lipid compounds designed in the present disclosure, as well as cationic lipids from the prior art, including SM-102, HHMA, MC3, compound 7, and I-1, is shown in Table 4.

[4] = Particle size and polydispersity index (PDI) of lipid nanoparticles, dynamic light scattering; assay type: physicochemical; conditions: LNP preparation with the named cationic lipid; 90° scattering angle, 25° C
Description: as §3
The particle size and polydispersity index (PDI) were measured using dynamic light scattering with a Malvern laser diffraction particle size analyzer.
10 μL of liposome solution was diluted to 1 mL with RNase-free deionized water and added to the sample cell. Each sample was measured three times. The measurement conditions were as follows: 90° scattering angle, 25° C.

293T cells [5] = test: Cell viability assay (CCK-8) with LNP preparations of Fluc-mRNA; assay type: cell-based; conditions: for Cell viability: LNP with 1.5 μg Fluc-mRNA, 24 hours, CCK-8
Procedure: as §1, §2, §3, §4, §5
LNP preparations containing 1.5 μg of Fluc-mRNA (with the vector components of the LNP preparations of cationic lipids, DSPC, cholesterol, and DMG-PEG2000 in a molar ratio of 49:10:39.5:1.5, where the cationic lipids are those listed in Table 1) were added to the cell culture medium in a 96-well plate. After 24 hours of continued culture, 10 μL of CCK-8 solution was added to each well, and the culture plate was incubated in an incubator for 1 hour.

PDI [4] | Particle size [4] | SMILES | Average radiation intensity of mouse organs: Heart (female BALB/C mice [1]) | Average radiation intensity of mouse organs: Kidney (female BALB/C mice [1]) | Average radiation intensity of mouse organs: Liver (female BALB/C mice [1]) | Average radiation intensity of mouse organs: Lung (female BALB/C mice [1]) | Average radiation intensity of mouse organs: Lymph (female BALB/C mice [1]) | Average radiation intensity of mouse organs: Spleen (female BALB/C mice [1]) | Average radiation intensity, in vivo imaging (female BALB/C mice [2]; 6 h) | Average radiation intensity, in vivo imaging (female BALB/C mice [2]; 24 h) | Average radiation intensity, in vivo imaging (female BALB/C mice [2]; 48 h) | Average radiation intensity, in vivo imaging (female BALB/C mice [2]; 7 d) | Cell viability (293T cells [5]) | further results
12.2% | 121 nm | CCCCCCCCc1ccc(CCC(CO)(CO)NCCCCCCNC(=O)C(CCCCCC)CCCCCCCC)cc1 (stereo not shown) [YK-908, 2-hexyl-N-(6-((1-hydroxy-2-(hydroxymethyl)-4-(4-octylphenyl)butan-2-yl)amino)hexyl) decanamide] | 0 | 0 | 1423 | 0 | 0 | 168302 | 8918424 | 1176543 | 344643 | 64325 | 89% | Expression level of mRNA in the spleen, times that of SM-102 (female BALB/C mice [1]; spleen, 6 h, vs SM-102): 6.59 times; Expression level of mRNA in the spleen, times that of YK-501 (female BALB/C mice [1]; spleen, 6 h, vs YK-501): 11.83 times; Expression level of mRNA in the spleen, times that of YK-506 (female BALB/C mice [1]; spleen, 6 h, vs YK-506): 2.36 times; Cellular transfection efficiency, times that of HHMA (293T cells [3]; Fluc-mRNA LNP, vs HHMA): 5.01 times; Cellular transfection efficiency, times that of I-1 (293T cells [3]; Fluc-mRNA LNP, vs I-1): 25.01 times; Cellular transfection efficiency, times that of Lipofectamine 3000 (293T cells [3]; Fluc-mRNA LNP, vs Lipofectamine 3000): 6.02 times; Cellular transfection efficiency, times that of MC3 (293T cells [3]; Fluc-mRNA LNP, vs MC3): 53.42 times; Cellular transfection efficiency, times that of SM-102 (293T cells [3]; Fluc-mRNA LNP, vs SM-102): 3.55 times; Cellular transfection efficiency, times that of YK-501 (293T cells [3]; Fluc-mRNA LNP, vs YK-501): 109.64 times; Cellular transfection efficiency, times that of YK-506 (293T cells [3]; Fluc-mRNA LNP, vs YK-506): 7.75 times; Cellular transfection efficiency, times that of YK-907 (293T cells [3]; Fluc-mRNA LNP, vs YK-907): 134 times and 134.49 times; Cellular transfection efficiency, times that of compound 7 (293T cells [3]; Fluc-mRNA LNP, vs compound 7): 19.69 times; Cell viability higher than that of YK-907 (293T cells [5]; difference vs YK-907): 16%
13.5% | 145 nm | CCCCCCCCCCCOC(=O)CCCCCN(CCO)CCCCCCCC(=O)OC(CCCCCCCC)CCCCCCCC [SM-102, reference compound] | 0 | 0 | 24365 | 0 | 0 | 25547 | 2144435 | 314533 | 134554 | 9243 | 82% | Expression level in the liver, times that of YK-908 (female BALB/C mice [1]; liver, 6 h, vs YK-908): 17.12 times; Expression level in the liver, times that of YK-909 (female BALB/C mice [1]; liver, 6 h, vs YK-909): 2.67 times; Expression level in the liver, times that of YK-910 (female BALB/C mice [1]; liver, 6 h, vs YK-910): 2.13 times; Relative light unit (RLU) (293T cells [3]; LNP with 0.3 μg Fluc-mRNA, 96-well plate, 24 hours): 1428141 RLU
